# Assay results published in article PMC9367672, “In vitro differences in toddalolactone metabolism in various species and its effect on cytochrome P450 expression” (Pharmaceutical Biology, 2022).
# Legend:
# HLMs = assay: Prediction of in vivo hepatic clearance in humans from HLM kinetics; format: in vitro ADME, human
# Description: The in vivo hepatic clearances in oxidative metabolism and glucuronidation of toddalolactone were calculated using Equations (4)–(6) (Li et al. [2008]): (4) CLint in vitro=∑i=1nVmax(Mi)/Km(Mi) (5) CLint in vivo=CLint in vitro⋅SF (6) CLH=QH⋅fu⋅CLint in vivo/QH+fu⋅CLint in vivo where SF is the milligrams of microsomal protein per gram of liver multiplied by the grams of liver weight; CLH is hepatic clearance; fu is the unbound fraction in the blood (the value of fu was set to 1 due to the absence of available data for toddalolactone); QH is the blood flow in the liver; and Mi is the metabolite of toddalolacone. The physiological parameters to calculate intrinsic clearance were as follows. The liver weight of dogs, rats and humans were 32, 40 and 25.7 g/kg body weight, respectively; the content of microsomal protein was 77.9, 44.8 and 48.8 mg/g of liver; and the blood flow in the liver was 30.9, 55.2 and 20.7 mL/(min ⋅ kg), respectively (Naritomi et al. [2001]).
# [1] = design: method as in Zhou et al. ([2021]); conditions: mouse blood; intravenous administration; ref Zhou et al. ([2021]); cited from earlier work
# CYP3A5 = CYP3A5 (Homo sapiens, UniProt P20815); assay: Reaction phenotyping with recombinant human CYP3A5; format: in vitro ADME; design: purchased Corning Life Sciences (Corning, MA); host or cells: Saccharomyces cerevisiae; conditions: CYP3A5 15 nM, 37 °C, 60 min; P4 main metabolite
# Chain of CYP3A5 (P20815 whole entry): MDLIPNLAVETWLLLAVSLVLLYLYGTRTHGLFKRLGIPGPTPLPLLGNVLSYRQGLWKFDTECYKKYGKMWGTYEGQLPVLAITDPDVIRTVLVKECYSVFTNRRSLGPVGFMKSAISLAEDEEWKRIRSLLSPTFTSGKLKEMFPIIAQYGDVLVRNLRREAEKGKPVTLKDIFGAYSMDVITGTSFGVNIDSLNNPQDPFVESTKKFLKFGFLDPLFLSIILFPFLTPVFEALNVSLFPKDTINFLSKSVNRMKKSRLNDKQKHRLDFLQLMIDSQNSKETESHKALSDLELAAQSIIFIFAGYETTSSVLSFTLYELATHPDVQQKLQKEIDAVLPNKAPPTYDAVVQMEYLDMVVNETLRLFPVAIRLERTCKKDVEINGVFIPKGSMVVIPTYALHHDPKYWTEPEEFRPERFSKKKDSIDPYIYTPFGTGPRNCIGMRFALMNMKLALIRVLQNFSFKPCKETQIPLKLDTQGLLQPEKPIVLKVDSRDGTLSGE
# Description: (§1) The CYP reaction system (200 μL) consisted of 0.1 M potassium phosphate buffer (pH 7.4), an NADPH-generating system (1 mM NADPH, 10 mM G-6-P, 1 unit/mL G-6-PD, 4 mM MgCl2), and liver microsomes or recombinant human microsomes (supersomes). Each of the in vitro enzymatic assays using liver microsomes was linear with respect to incubation time and amount of protein. After a pre-incubation at 37 °C for 3 min, the reactions were initiated by adding NADP^+. After incubating for 60 min, the reactions were quenched by adding 200 μL of ice-cold acetonitrile. Samples were centrifuged at 18,000 g for 15 min at 4 °C and 10 μL of supernatant was analyzed using an HPLC system. NADPH or CYP enzyme sources were not used in the control group to ensure that the metabolic reactions were CYP- and NADPH-dependent. All incubation assays were completed in triplicate. The data are presented as mean ± standard deviation (SD).
# (§2) Thirteen cDNA-expressed human CYP isoforms (CYP1A1, CYP1A2, CYP2A6, CYP2B6, CYP2C8, CYP3A4, CYP2C19, CYP3A5, CYP1B1, CYP2C9, CYP2D6, CYP2E1 and CYP4F2) were used to identify the isoform(s) involved in the biotransformation of toddalolactone. Toddalolactone (10 μM) was incubated with each recombinant CYP (15 nM) for 60 min at 37 °C and metabolites were identified by HPLC.
# CYP1A1 = target: T1, CYP1A1 (Homo sapiens, UniProt P04798); assay: Reaction phenotyping with recombinant human CYP1A1; format: in vitro ADME; design: purchased Corning Life Sciences (Corning, MA); conditions: CYP1A1 15 nM, 37 °C, 60 min; P4 main metabolite
# T1 sequence (P04798 1-512): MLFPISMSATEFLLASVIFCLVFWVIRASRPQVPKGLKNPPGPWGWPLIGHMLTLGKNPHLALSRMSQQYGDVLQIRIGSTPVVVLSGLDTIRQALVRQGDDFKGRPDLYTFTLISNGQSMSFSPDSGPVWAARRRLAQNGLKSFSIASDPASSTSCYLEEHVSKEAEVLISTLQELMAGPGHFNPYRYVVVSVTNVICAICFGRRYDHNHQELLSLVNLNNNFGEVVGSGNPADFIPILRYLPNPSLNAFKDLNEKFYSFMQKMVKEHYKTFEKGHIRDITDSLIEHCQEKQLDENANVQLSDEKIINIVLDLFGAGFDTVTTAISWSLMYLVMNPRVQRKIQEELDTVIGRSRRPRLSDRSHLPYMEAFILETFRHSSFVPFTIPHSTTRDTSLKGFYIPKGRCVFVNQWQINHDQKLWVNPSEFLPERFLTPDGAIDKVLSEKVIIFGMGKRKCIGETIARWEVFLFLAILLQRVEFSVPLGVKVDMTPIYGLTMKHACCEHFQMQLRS
# Description: as §1, §2
compound,measurement,setting,value
COc1cc2oc(=O)ccc2c(OC)c1C[C@@H](O)C(C)(C)O [toddalolactone],CLH versus hepatic blood flow (QH),HLMs; HLMs,8.68%
same,clearance class according to predicted CLH,HLMs; humans,low-clearance (low-clearance drugs (<30% liver blood flow))
same,in vivo hepatic clearance (CLH),"HLMs; humans, predicted from kinetic parameters of P1–P6, fu set to 1",5.25 mL/(min/kg body weight)
same,t1/2,[1],48 min
same,catalysis of toddalolactone metabolism by rhCYP isoform,CYP3A5,predominantly catalyzed
same,catalysis of toddalolactone metabolism by rhCYP isoform,CYP1A1,predominantly catalyzed
